From patent US8158593B2, “GPR17 modulators, method of screening and uses thereof” (Universita' degli Studi di Milano, priority 2004, dated 2012)

Assays:
hGPR17 [1] = molecular target: T1, hGPR17 (Homo sapiens, UniProt Q13304); assay: Single cell calcium imaging in 1321N1 cells expressing hGPR17; format: cell-based; set-up: expressed in transfected cells; host or cells: 1321N1 (A1, A5), COS-7 (A3, A6), HEK-293 (A4); pcDNA3.1
From the text: Polychrome IV (TILL Photonics, Germany) was used as light source. Fura-2 and EGFP fluorescence images were collected with a PCO Super […] (Axon Instruments, Forest City, Calif.) and analyzed with the Axon Imaging Workbench 2.2 software (Axon Instruments).

rat GPR17 = molecular target: T2, rat GPR17 (Rattus norvegicus, UniProt Q09QM4); assay: [35S]GTPγS binding to membranes of 1321N1 cells expressing rat GPR17; format: biochemical; details: agonist; 1321N1 cells expressing rat GPR17
T2 construct: expressed in transfected cells; host or cells: 1321N1; pcDNA3.1
Description: (§1) [^35S]GTPγS Binding Assay. 1321N1 cells, COS-7 and HEK-293 cells (control and transfected cells) were homogenized in 5 mM TRIS-HCl, 2 mM EDTA, pH 7.4 and centrifuged at 48000 g for 15 min at 4° C. The resulting pellets (plasma membranes) were washed in 50 mM TRIS-HCl, 10 mM MgCl2, pH 7.4 and stored at −80° C. until used. Measurement of nucleotide-stimulated [^35S]GTPγS binding to membranes of cells expressing the human or rat GPR17 receptor was performed as previously described^9-11.
To identify the endogenous ligand of GPR17, the cDNAs from human and rat GPR17 were cloned into the mammalian expression vector pcDNA3.1 and transfected in 1321N1, COS-7 and HEK-293 cells for functional characterization. GPR17 activation was assessed by testing the ability of exogenously-added ligands to increase [^35S]GTPγS binding to purified membranes obtained from transfected cells^9-11. […] The specificity of GPR17 responses were also challenged by assessing the ability of some purinergic and leukotriene receptor antagonists to counteract the increase of [^35S]GTPγS binding evoked by nucleotides and cys-LTs in 1321N1 cells expressing either the human or rat receptor. […] Because both P2Y^2,11,12 and CysLT receptors^3,13 may couple to G proteins of the Gi subfamily, to evaluate the involvement of this class of G-proteins, we preincubated 1321N1 cells expressing hGPR17 with pertussis toxin (PTX) which inactivates Gi proteins, prior to membrane preparation and [^35S]GTPγS binding.
Table 1. Potency of various ligands on [^35S]GTPγS binding to membranes obtaind from 1321N1 cells-transfected with human or rat GPR17. […] All data represent the mean of triplicate determinations from 4-9 independent experiments.

hGPR17 [2] = molecular target: T1, hGPR17; assay: [35S]GTPγS binding, HEK-293 cells expressing hGPR17; format: biochemical; set-up: expressed in transfected cells; host or cells: HEK-293 (A4); pcDNA3.1; details: HEK-293 cells transfected with hGPR17
Description: as §1
To identify the endogenous ligand of GPR17, the cDNAs from human and rat GPR17 were cloned into the mammalian expression vector pcDNA3.1 and transfected in 1321N1, COS-7 and HEK-293 cells for functional characterization. GPR17 activation was assessed by testing the ability of exogenously-added ligands to increase [^35S]GTPγS binding to purified membranes obtained from transfected cells^9-11. […] The specificity of GPR17 responses were also challenged by assessing the ability of some purinergic and leukotriene receptor antagonists to counteract the increase of [^35S]GTPγS binding evoked by nucleotides and cys-LTs in 1321N1 cells expressing either the human or rat receptor. […]

T1 sequence (Q13304 29-367): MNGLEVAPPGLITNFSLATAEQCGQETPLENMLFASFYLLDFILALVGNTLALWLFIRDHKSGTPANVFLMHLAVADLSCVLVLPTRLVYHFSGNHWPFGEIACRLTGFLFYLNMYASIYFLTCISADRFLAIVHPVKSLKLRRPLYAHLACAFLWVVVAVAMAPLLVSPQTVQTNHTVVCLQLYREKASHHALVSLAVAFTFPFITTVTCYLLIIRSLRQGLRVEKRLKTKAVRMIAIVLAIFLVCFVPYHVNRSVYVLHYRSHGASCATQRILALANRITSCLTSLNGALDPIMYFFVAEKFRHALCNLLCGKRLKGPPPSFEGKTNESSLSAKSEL
T2 sequence (Q09QM4 whole entry): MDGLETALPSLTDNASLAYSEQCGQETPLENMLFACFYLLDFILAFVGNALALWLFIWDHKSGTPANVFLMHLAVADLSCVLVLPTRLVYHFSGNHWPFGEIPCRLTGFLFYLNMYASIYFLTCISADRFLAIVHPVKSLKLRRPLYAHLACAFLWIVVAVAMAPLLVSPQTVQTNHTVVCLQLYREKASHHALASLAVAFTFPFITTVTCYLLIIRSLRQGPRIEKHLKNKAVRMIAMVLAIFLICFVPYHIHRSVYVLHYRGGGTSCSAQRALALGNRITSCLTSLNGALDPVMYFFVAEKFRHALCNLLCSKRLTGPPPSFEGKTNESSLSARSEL

cells showing rise of [Ca2+]i (hGPR17 [1]): approximately 30%
EC50 (rat GPR17): 4.6 ± 0.6 µM
response in [35S]GTPγS binding (hGPR17 [2]): induced responses
SMILES: O=c1ccn([C@@H]2O[C@H](COP(=O)(O)OP(=O)(O)O)[C@@H](O)[C@H]2O)c(=O)[nH]1 [UDP]
